Results published in ChEMBL document CHEMBL1201862, “PubChem BioAssay data set” (2004).
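Protocol summary: plate cells (96-well), add compound at 5 concentrations, incubate 48 h, interpolate endpoints linearly. GI50 is the concentration that inhibits growth by half.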 Calls of active or inactive are those of the source. Cut-off read from the data, not from the text of the source: active = GI50 up to about 1.1 µM and inactive = higher.

Tests used:
Assay in all cases: inhibition of tumour cell growth, NCI panel, 48 h
XF498 = test system: XF498
EKVX = test system: EKVX
DMS-114 = test system: DMS-114
SNB-78 = test system: SNB-78
CAKI-1 = test system: CAKI-1
HOP-18 = test system: HOP-18
CCRF-CEM = test system: CCRF-CEM
HCT-15 = test system: HCT-15
HT-29 = test system: HT-29
KM-20L2 = test system: KM-20L2
UACC-62 = test system: UACC-62
NCI/ADR-RES = test system: NCI/ADR-RES
SF-295 = test system: SF-295
SK-MEL-28 = test system: SK-MEL-28
HOP-92 = test system: HOP-92

Measured: GI50

COc1cc2c(oc(=O)c3cc(C)cc(OC)c32)c2c(C3OC(C)C(O)C(C)(O)C3O)ccc(O)c12 (centres undefined)
inactive: HOP-18 1.41 µM
0.662 µM: HCT-15
active: XF498 0.37 µM | EKVX 0.776 µM | DMS-114 0.315 µM | SNB-78 0.755 µM | CAKI-1 0.432 µM | CCRF-CEM 0.0955 µM | HT-29 0.463 µM | KM-20L2 0.664 µM | UACC-62 0.414 µM | NCI/ADR-RES 0.622 µM | SF-295 0.358 µM | SK-MEL-28 0.861 µM | HOP-92 0.745 µM

CCOC(=O)c1c[nH]c2cc3c(cc2c1=O)CCS3(=O)=O.CCOC(=O)c1c[nH]c2ccc3c(c2c1=O)S(=O)(=O)CC3
inactive: XF498 > 100 µM | EKVX > 100 µM | DMS-114 > 100 µM | SNB-78 > 100 µM | CAKI-1 > 100 µM | HOP-18 97.1 µM | CCRF-CEM > 100 µM | HT-29 > 100 µM | KM-20L2 > 100 µM | UACC-62 > 100 µM | NCI/ADR-RES > 100 µM | SF-295 > 100 µM | SK-MEL-28 > 100 µM | HOP-92 > 100 µM
> 100 µM: HCT-15

COc1ccc2[nH]c3c(C)c4ccncc4c(C)c3c2c1
inactive: XF498 2.7 µM | SNB-78 2.69 µM | HOP-18 1.29 µM | SK-MEL-28 2.09 µM
active: EKVX 1.01 µM | DMS-114 0.446 µM | CAKI-1 0.601 µM | CCRF-CEM 0.0982 µM | HT-29 0.212 µM | KM-20L2 0.169 µM | UACC-62 0.731 µM | NCI/ADR-RES 0.139 µM | SF-295 0.521 µM | HOP-92 0.23 µM
0.22 µM: HCT-15

Cc1ccc(C#CS(=O)(=O)C(F)(F)F)cc1
inactive: XF498 > 100 µM | EKVX > 100 µM | DMS-114 > 100 µM | SNB-78 > 100 µM | HOP-18 > 100 µM | CCRF-CEM > 100 µM | HT-29 > 100 µM | KM-20L2 > 100 µM | UACC-62 > 100 µM | NCI/ADR-RES > 100 µM | SF-295 > 31.6 µM | SK-MEL-28 > 100 µM | HOP-92 > 100 µM
> 100 µM: HCT-15
